For 15 compounds, T/C results are on record in PubChem BioAssay AID248 (DTP/NCI, 2004).

The assay relates to L1210 leukemia ip in BDF1 mice, survival T/C. As to the kind of experiment: NCI In Vivo Anticancer Drug Screen. Data for tumor model L1210 Leukemia (intraperitoneal) in B6D2F1 (BDF1) mice. The note with it: endpoint: mean survival time, higher = longer survival. A digest of the protocol: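 Transplanted-tumor mice were given test agent; controls received vehicle only. Survival readings from the two groups were divided (treated over control).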

Setting [1] is: dose: 75.0 mg/kg/injection, schedule: Q01DX009 (ip), vehicle: Klucel (hydroxypropylcellulose) (HPC).
The mark [2] stands for this setting: dose: 100.0 mg/kg/injection, schedule: Q01DX009 (ip), vehicle: saline with Tween-80.
Setting [3] is: dose: 200.0 mg/kg/injection, schedule: Q01DX009 (ip), vehicle: saline with Tween-80.
The mark [4] stands for this setting: dose: 50.0 mg/kg/injection, schedule: Q01DX009 (ip), vehicle: saline with Tween-80.
Setting [5] is: dose: 100.0 mg/kg/injection, schedule: Q04DX003 (ip), vehicle: saline with Tween-80.
The mark [6] stands for this setting: dose: 200.0 mg/kg/injection, schedule: Q04DX003 (ip), vehicle: saline with Tween-80.
Where [7] appears, read: dose: 400.0 mg/kg/injection, schedule: Q04DX003 (ip), vehicle: saline with Tween-80.

Several values for one entry are separate records, joined by “and”; a condition that tells them apart may be missing. Identical values can stand only once. Inconclusive results and toxic doses are left out.

As to `C=C(C)C1CCC2(C=O)CCC3(C)C(CCC4C5(C)CCC(O)C(C)(C)C5CCC43C)C12` (centres undefined), the T/C is, setting by setting: (dose: 18.75 mg/kg/injection, schedule: Q01DX009 (ip), vehicle: Klucel (hydroxypropylcellulose) (HPC)) 100 % of control; (dose: 37.5 mg/kg/injection, schedule: Q01DX009 (ip), vehicle: Klucel (hydroxypropylcellulose) (HPC)) 93 % of control; under setting [1], 89 % of control.

For `N/C(=N\Cl)C(Cl)(Cl)Cl`, the T/C is, setting by setting: (dose: 12.5 mg/kg/injection, schedule: Q04DX003 (ip), vehicle: saline with Tween-80) 103 % of control; (dose: 25.0 mg/kg/injection, schedule: Q04DX003 (ip), vehicle: saline with Tween-80) 103 % of control; (dose: 50.0 mg/kg/injection, schedule: Q04DX003 (ip), vehicle: saline with Tween-80) 103 % of control.

Turning to `CC(=N\N=C(N)N)/C(N=Nc1ccc(S(N)(=O)=O)cc1)=N\N=C(N)N`, the T/C reads like this: (dose: 15.0 mg/kg/injection, schedule: Q01DX Z (ip), vehicle: carboxymethylcellulose (CMC)) 105 % of control; (dose: 30.0 mg/kg/injection, schedule: Q01DX Z (oral), vehicle: carboxymethylcellulose (CMC)) 96 % of control and 102 % of control; (dose: 60.0 mg/kg/injection, schedule: Q01DX Z (ip), vehicle: carboxymethylcellulose (CMC)) 160 % of control and 168 % of control and 184 % of control; (dose: 60.0 mg/kg/injection, schedule: Q01DX Z (oral), vehicle: carboxymethylcellulose (CMC)) 109 % of control and 120 % of control; (dose: 120.0 mg/kg/injection, schedule: Q01DX Z (oral), vehicle: carboxymethylcellulose (CMC)) 113 % of control.

In the case of `CCCNC(=O)Oc1c(C(C)C)ccc(C)c1Cl`, the T/C by setting is: under setting [2], 108 % of control; under setting [3], 88 % of control; (dose: 400.0 mg/kg/injection, schedule: Q01DX009 (ip), vehicle: saline with Tween-80) 95 % of control.

Turning to `O=CC1CC2CCC1C2` (centres undefined), the T/C reads like this: (dose: 100.0 mg/kg/injection, schedule: Q01DX001 (ip), vehicle: saline) 116 % of control; (dose: 200.0 mg/kg/injection, schedule: Q01DX001 (ip), vehicle: saline) 91 % of control; (dose: 400.0 mg/kg/injection, schedule: Q01DX001 (ip), vehicle: saline) 96 % of control.

With `COC1OC(CBr)C(OC(=O)c2ccccc2)C(OC(=O)c2ccccc2)C1OS(=O)(=O)c1ccc(C)cc1` (centres undefined), the T/C (dose: 50.0 mg/kg/injection, schedule: Q04DX002 (ip), vehicle: Klucel (hydroxypropylcellulose) (HPC)) is 97 % of control; the T/C (dose: 100.0 mg/kg/injection, schedule: Q04DX002 (ip), vehicle: Klucel (hydroxypropylcellulose) (HPC)) was 87 % of control; the T/C (dose: 200.0 mg/kg/injection, schedule: Q04DX002 (ip), vehicle: Klucel (hydroxypropylcellulose) (HPC)) was 97 % of control.

Turning to `O=P1(O)Cc2ccccc2-c2ccccc21`, the T/C is 96 % of control (dose: 100.0 mg/kg/injection, schedule: Q01DX001 (ip), vehicle: other); 101 % of control (dose: 200.0 mg/kg/injection, schedule: Q01DX001 (ip), vehicle: other); 98 % of control (dose: 400.0 mg/kg/injection, schedule: Q01DX001 (ip), vehicle: other).

For the compound `CCCCN1C(=O)N(CCCC)C(=O)C(Br)(Br)C1=O`, the T/C runs as follows: under setting [4], 97 % of control; under setting [2], 105 % of control; under setting [3], 97 % of control.

Consider `OC(c1ccccc1)C(O)c1ccccc1` (centres undefined), for which the T/C was 103 % of control (dose: 5.0 mg/kg/injection, schedule: Q01DX001 (ip), vehicle: saline); 100 % of control (dose: 10.0 mg/kg/injection, schedule: Q01DX001 (ip), vehicle: saline); 93 % of control (dose: 12.5 mg/kg/injection, schedule: Q01DX009 (ip), vehicle: Klucel (hydroxypropylcellulose) (HPC)); 97 % of control (dose: 20.0 mg/kg/injection, schedule: Q01DX001 (ip), vehicle: saline); 92 % of control (dose: 25.0 mg/kg/injection, schedule: Q01DX009 (ip), vehicle: Klucel (hydroxypropylcellulose) (HPC)); 92 % of control (dose: 40.0 mg/kg/injection, schedule: Q01DX001 (ip), vehicle: saline). Also, the T/C is, setting by setting: (dose: 50.0 mg/kg/injection, schedule: Q01DX009 (ip), vehicle: Klucel (hydroxypropylcellulose) (HPC)) 93 % of control; (dose: 80.0 mg/kg/injection, schedule: Q01DX001 (ip), vehicle: saline) 98 % of control.

With `O=C(Nc1cccc([N+](=O)[O-])c1)Nc1ccccc1Cl`, the T/C is 88 % of control (dose: 100.0 mg/kg/injection, schedule: Q04DX002 (ip), vehicle: saline + alcohol); 88 % of control (dose: 200.0 mg/kg/injection, schedule: Q04DX002 (ip), vehicle: saline + alcohol); 88 % of control (dose: 400.0 mg/kg/injection, schedule: Q04DX002 (ip), vehicle: saline + alcohol).

For the compound `O=C(Nc1ccc([N+](=O)[O-])cc1)c1ccc([N+](=O)[O-])cc1`, the T/C was 94 % of control under setting [5], 94 % of control under setting [6] and 89 % of control under setting [7].

Consider `O=C(NC(=S)Nc1nc(-c2ccccc2)cs1)c1ccccc1`, for which the T/C reads like this: (dose: 100.0 mg/kg/injection, schedule: Q01DX001 (ip), vehicle: gum acacia) 95 % of control; (dose: 200.0 mg/kg/injection, schedule: Q01DX001 (ip), vehicle: gum acacia) 103 % of control; (dose: 400.0 mg/kg/injection, schedule: Q01DX001 (ip), vehicle: gum acacia) 103 % of control.

In the case of `O=S(=O)(ON/N=C/c1cc2ccccc2c2ccccc12)c1ccccc1`, the T/C runs as follows: under setting [1], 96 % of control; (dose: 150.0 mg/kg/injection, schedule: Q01DX009 (ip), vehicle: Klucel (hydroxypropylcellulose) (HPC)) 96 % of control; (dose: 300.0 mg/kg/injection, schedule: Q01DX009 (ip), vehicle: Klucel (hydroxypropylcellulose) (HPC)) 98 % of control.

For `CC(C)CSC(C)C`, the T/C under setting [4] is 98 % of control; the T/C under setting [2] is 96 % of control; the T/C under setting [5] is 107 % of control; the T/C under setting [3] was 91 % of control; the T/C under setting [6] is 105 % of control; the T/C under setting [7] is 87 % of control.

For the compound `O=CNc1ncnn1C(=S)NCc1ccccc1`, the T/C was 105 % of control (dose: 50.0 mg/kg/injection, schedule: Q01DX009 (ip), vehicle: saline) and 111 % of control (dose: 100.0 mg/kg/injection, schedule: Q01DX009 (ip), vehicle: saline).
